According to patent publication US20240051931A1, “HDAC INHIBITORS” (University of Pittsburgh - Of the Commonwealth System of …, priority 2020, published 2024):

| SMILES | melting point [°C] |
| --- | --- |
| O=C(NO)C1CCc2ccc(OCCOc3ccc(F)cc3)cc2O1 (stereo not shown) [Compound 50b, 7-(2-(4-Fluorophenoxy)ethoxy)-N-hydroxychromane-2-carboxamide] | 144 to 147 |
| O=C(NO)C1CCc2ccc(OCc3ccccn3)cc2O1 (stereo not shown) [Compound 50c, N-Hydroxy-7-(pyridin-2-ylmethoxy)chromane-2-carboxamide] | 125 to 128 |
| O=C(NO)[C@@H]1CCc2ccc(OCc3ccccc3Cl)cc2O1 [Compound 50d, (S)-7-((2-Chlorobenzyl)oxy)-N-hydroxychromane-2-carboxamide] | 141 to 147 |
| O=C(NO)C1CCc2ccc(O)cc2O1 (stereo not shown) [Compound 55, N,7-Dihydroxychromane-2-carboxamide] | 174 to 176 |
| CN1CC(C(=O)NO)Oc2ccccc21 (stereo not shown) [Compound 78, N-Hydroxy-4-methyl-3,4-dihydro-2H-benzo[b][1,4]oxazine-2-carboxamide] | 118 to 120 |
| O=C(NO)C1CCc2cc(Cl)ccc2O1 (stereo not shown) [Compound 90, 6-Chloro-N-hydroxychromane-2-carboxamide] | 160 to 162 |
| O=C(Nc1cccc2c1O[C@H](C(=O)NO)CC2)OCc1ccccc1Cl [−11L, 2-Chlorobenzyl (S)-(2-(hydroxycarbamoyl)chroman-8-yl)carbamate] | 176 to 178 |

Results, then the compound that gave them:

| melting point [°C] | SMILES |
| --- | --- |
| 167 to 169 | O=C(NO)C1CCc2ccc(-c3ccc(Cl)c(Cl)c3)cc2O1 (stereo not shown) [Compound 58a, 7-(3,4-Dichlorophenyl)-N-hydroxychromane-2-carboxamide] |
| 155 to 158 | Cn1ccc2cc(-c3ccc4c(c3)OC(C(=O)NO)CC4)ccc21 (stereo not shown) [Compound 58b, N-Hydroxy-7-(1-methyl-1H-indol-5-yl)chromane-2-carboxamide] |
| 181 to 183 | COc1ccc(-c2ccc3c(c2)OC(C(=O)NO)CC3)cc1 (stereo not shown) [Compound 58c, N-Hydroxy-7-(4-methoxyphenyl)chromane-2-carboxamide] |
